Assays:
Format in all cases: functional, cell-based
[1] = target: T1, ATP-dependent translocase ABCB1 (Homo sapiens, UniProt P08183); test: TP_TRANSPORTER: Western blot, LS180V cell
[2] = target: T1, ATP-dependent translocase ABCB1; test: TP_TRANSPORTER: inhibition of Rhodamine 123 transepithelial transport (basal to apical) (R123: 5 uM) in Caco-2 cells
[3] = target: T1, ATP-dependent translocase ABCB1; test: TP_TRANSPORTER: transepithelial transport (basal to apical) in Caco-2 cells

T1 sequence (P08183 whole entry): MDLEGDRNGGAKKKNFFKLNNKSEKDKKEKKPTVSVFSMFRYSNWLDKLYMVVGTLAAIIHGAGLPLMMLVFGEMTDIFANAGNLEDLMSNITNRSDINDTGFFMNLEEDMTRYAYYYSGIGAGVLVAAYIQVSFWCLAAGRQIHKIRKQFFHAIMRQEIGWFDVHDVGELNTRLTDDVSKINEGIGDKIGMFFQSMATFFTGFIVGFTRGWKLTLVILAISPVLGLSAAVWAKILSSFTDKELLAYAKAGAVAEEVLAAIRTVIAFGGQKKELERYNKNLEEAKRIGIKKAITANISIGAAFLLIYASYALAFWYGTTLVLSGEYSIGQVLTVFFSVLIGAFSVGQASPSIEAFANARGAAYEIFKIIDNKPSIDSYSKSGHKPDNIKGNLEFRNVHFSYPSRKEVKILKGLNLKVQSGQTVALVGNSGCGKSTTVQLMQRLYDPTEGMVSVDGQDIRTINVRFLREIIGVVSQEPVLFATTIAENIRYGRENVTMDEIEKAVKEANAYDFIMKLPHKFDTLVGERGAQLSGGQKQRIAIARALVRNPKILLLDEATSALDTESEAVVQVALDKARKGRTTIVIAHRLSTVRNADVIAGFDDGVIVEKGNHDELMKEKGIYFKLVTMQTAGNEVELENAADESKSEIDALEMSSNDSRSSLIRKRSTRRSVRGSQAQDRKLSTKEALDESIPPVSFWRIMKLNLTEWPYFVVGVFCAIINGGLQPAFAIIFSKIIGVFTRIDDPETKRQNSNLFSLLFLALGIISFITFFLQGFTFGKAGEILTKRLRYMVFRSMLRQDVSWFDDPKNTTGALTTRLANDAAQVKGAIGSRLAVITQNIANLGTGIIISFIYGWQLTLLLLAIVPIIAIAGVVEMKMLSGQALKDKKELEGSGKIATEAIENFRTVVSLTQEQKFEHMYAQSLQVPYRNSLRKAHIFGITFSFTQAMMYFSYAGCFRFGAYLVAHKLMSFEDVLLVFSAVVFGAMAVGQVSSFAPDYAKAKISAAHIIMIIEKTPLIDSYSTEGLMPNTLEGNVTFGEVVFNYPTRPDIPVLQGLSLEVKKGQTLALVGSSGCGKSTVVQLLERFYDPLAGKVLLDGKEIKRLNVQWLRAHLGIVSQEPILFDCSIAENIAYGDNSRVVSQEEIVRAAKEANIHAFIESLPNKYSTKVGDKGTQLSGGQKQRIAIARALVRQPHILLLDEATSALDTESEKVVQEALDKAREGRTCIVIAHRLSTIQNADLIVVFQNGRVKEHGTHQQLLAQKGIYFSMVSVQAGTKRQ

SMILES | Activity [1] | IC50 [2] | Activity [3]
CCc1nn(CCCN2CCN(c3cccc(Cl)c3)CC2)c(=O)n1CCOc1ccccc1 [NEFAZODONE] | inducer [+] | 4.7 µM | is not a substrate [-]
O=c1n(CCCN2CCN(c3cccc(Cl)c3)CC2)nc2ccccn12 [TRAZODONE] | inducer [+] |  | 

From ChEMBL document CHEMBL2074564, “P-glycoprotein interactions of nefazodone and trazodone in cell culture” (J Clin Pharmacol, 2001)
